Values quoted from earlier work as cited in patent US6365196B1, “Controlled release solid dosage forms of lithium carbonate” (SmithKline Beecham Corporation, priority 1997, dated 2002).

O=C(O)/C=C/C(=O)O [fumaric acid]
solubility in water: 6 mg per ml
